This note sets out measurements from ChEMBL document CHEMBL3862023, “Synthesis of N-aryl and N-arylcarbamoylamino derivatives of 1,3-diazinane-5-carboxamide and their activity against glioblastoma LN-229 cell line” (Bioorg Med Chem, 2016).

Data set [1] is described as follows: Solubility of the compound in DMSO/TFA. Type of data set: physicochemical.
Data set [2] is described as follows: Solubility of the compound in trifluoroacetic acid. It counts as physicochemical.
Data set [3] is described as follows: Solubility of the compound in CHCl3/TFA. Type of data set: physicochemical.
Data set [4] can be described thus: Solubility of the compound in ethanol. It counts as physicochemical.
Data set [5] in a line: Solubility of the compound in isopropanol. It counts as physicochemical.
Data set [6] is described as follows: Solubility of the compound in DMSO. It counts as physicochemical.
Data set [7] in a line: Solubility of the compound in chloroform. Type of data set: physicochemical.
Data set [8] in a line: Cytotoxicity against human LN229 cells assessed as concentration required for induction of cell death after 24 hrs by crystal violet staining based light microscopic analysis. It counts as functional, LN-229.

In the case of `O=C1NC(=O)C(C(=O)NNC(=O)Nc2ccc(Cl)c(Cl)c2)C(=O)N1`, the solubility result in data set [1] is reported as “Soluble”; in data set [2], “Soluble”; in data set [3] it was “Soluble”; in data set [4], “Insoluble”; in data set [5] it was “Insoluble”; in data set [6], “Insoluble”. For the same compound, in data set [7], the solubility result is recorded as “Insoluble”.

As to `O=C1NC(=O)C(C(=O)NNC(=O)Nc2ccc(O)cc2)C(=O)N1`, the solubility entry in data set [1] was “Soluble”; in data set [2] it was “Soluble”; in data set [3], “Soluble”; in data set [4], “Insoluble”; in data set [5], “Insoluble”; in data set [6], “Insoluble”. Besides, the solubility result in data set [7] is recorded as “Insoluble”.

For the compound `CN1C(=O)C(C(=O)Nc2ccc(C(=O)O)cc2)C(=O)N(C)C1=O`, the Activity in data set [8] worked out at 100 µg/mL.

In the case of `COc1ccc(NC(=O)C2C(=O)NC(=O)NC2=O)cc1OC`, the solubility entry in data set [4] and in data set [5] was “Insoluble” throughout.

For `O=C1NC(=O)C(C(=O)NNC(=O)Nc2ccc([N+](=O)[O-])cc2)C(=O)N1`, the solubility entry in data set [1] is “Soluble”; in data set [2], “Soluble”; in data set [3], “Soluble”; in data set [4], “Insoluble”; in data set [5], “Insoluble”; in data set [6], “Insoluble”. The solubility result in data set [7] is reported as “Insoluble”.

For the compound `CN1C(=O)NC(=O)C(C(=O)NNC(=O)Nc2ccc(F)cc2)C1=O` (configuration not stated), the solubility result in data set [1], in data set [2], in data set [3], in data set [4], in data set [5] and in data set [6] was “Insoluble” throughout. Also, the solubility result in data set [7] is listed as “Insoluble”.

`CN1C(=O)NC(=O)C(C(=O)NNC(=O)Nc2cccc(O)c2)C1=O` (configuration not stated): the solubility entry in data set [1], in data set [2], in data set [3], in data set [4], in data set [5] and in data set [6] was “Insoluble” throughout. The solubility entry in data set [7] is reported as “Insoluble”.

For the compound `CN1C(=O)C(C(=O)Nc2cccc(Cl)c2Cl)C(=O)N(C)C1=O`, the Activity in data set [8] was 100 µg/mL.

As to `CN1C(=O)NC(=O)C(C(=O)Nc2ccc(Cl)cc2)C1=O` (configuration not stated), in data set [8], the Activity amounted to 100 µg/mL.

Take `O=C1NC(=O)C(C(=O)Nc2ccc(I)cc2)C(=O)N1`: the solubility result in data set [4] and in data set [5] was “Insoluble” in each case.

In the case of `CN1C(=O)C(C(=O)Nc2ccc(Cl)c(Cl)c2)C(=O)N(C)C1=O`, in data set [8], the Activity was found to be 100 µg/mL.

Take `CN1C(=O)C(C(=O)Nc2cccc(Br)c2)C(=O)N(C)C1=O`: in data set [8], the Activity worked out at 100 µg/mL.

Regarding `O=C1NC(=O)C(C(=O)Nc2cc(Cl)cc(Cl)c2)C(=O)N1`, the solubility entry in data set [4] and in data set [5] was “Insoluble” each time.

`CN1C(=O)C(C(=O)Nc2ccc(Br)cc2)C(=O)N(C)C1=O`: in data set [8], the Activity stood at 100 µg/mL.

In the case of `CN1C(=O)C(C(=O)Nc2ccccc2O)C(=O)N(C)C1=O`, the Activity in data set [8] is 100 µg/mL.

As for `O=C1NC(=O)C(C(=O)Nc2ccc(Cl)cc2Cl)C(=O)N1`, the solubility entry in data set [4] and in data set [5] was “Insoluble” throughout.

On to `CN1C(=O)C(C(=O)Nc2cccc(O)c2)C(=O)N(C)C1=O`, for which the Activity in data set [8] is 100 µg/mL.

As for `O=C1NC(=O)N(c2ccccc2)C(=O)C1C(=O)Nc1ccccc1` (configuration not stated), the Activity in data set [8] was found to be 100 µg/mL.

Consider `O=C1NC(=O)C(C(=O)Nc2ccc([N+](=O)[O-])cc2)C(=O)N1`, for which the solubility entry in data set [4] and in data set [5] was “Insoluble” in each case. Besides, the Activity in data set [8] was determined as 100 µg/mL.

Consider `CN1C(=O)C(C(=O)NNc2ccc([N+](=O)[O-])cc2)C(=O)N(C)C1=O`, for which the Activity in data set [8] turned out to be 100 µg/mL.

`COc1ccc(NC(=O)C2C(=O)NC(=O)NC2=O)cc1`: the solubility entry in data set [4] and in data set [5] was “Insoluble” throughout.

On to `O=C(O)c1ccc(NC(=O)C2C(=O)NC(=O)N(c3ccccc3)C2=O)cc1` (configuration not stated), for which the Activity in data set [8] is 100 µg/mL.

With `O=C1NC(=O)C(C(=O)Nc2cccc3ccccc23)C(=O)N1`, the Activity in data set [8] was 100 µg/mL.

For the compound `CN1C(=O)C(C(=O)Nc2ccccc2-c2ccccc2)C(=O)N(C)C1=O`, the Activity in data set [8] was 100 µg/mL.

Consider `O=C1NC(=O)C(C(=O)Nc2ccccc2)C(=O)N1`, for which the solubility result in data set [4] and in data set [5] was “Insoluble” each time.

For the compound `CN1C(=O)NC(=O)C(C(=O)Nc2ccc3cc4ccccc4cc3c2)C1=O` (configuration not stated), the Activity in data set [8] turned out to be 100 µg/mL.

Turning to `CN1C(=O)C(C(=O)Nc2ccc3cc4ccccc4cc3c2)C(=O)N(C)C1=O`, in data set [8], the Activity was found to be 100 µg/mL.

As for `NC(=O)c1ccc(NC(=O)C2C(=O)NC(=O)NC2=O)cc1`, the solubility entry in data set [4] and in data set [5] was “Insoluble” each time.

Consider `COc1ccc(NC(=O)C2C(=O)NC(=O)N(c3ccccc3)C2=O)cc1` (configuration not stated), for which the Activity in data set [8] was 100 µg/mL.

For the compound `O=C1NC(=O)C(C(=O)Nc2cccc([N+](=O)[O-])c2)C(=O)N1`, the solubility entry in data set [4] and in data set [5] was “Insoluble” throughout.

For `O=C1NC(=O)C(C(=O)Nc2cccc(O)c2)C(=O)N1`, the solubility result in data set [4] and in data set [5] was “Insoluble” each time.

With `O=C1NC(=O)N(c2ccccc2)C(=O)C1C(=O)Nc1nc2ccc([N+](=O)[O-])cc2s1` (configuration not stated), the Activity in data set [8] amounted to 100 µg/mL.

In the case of `O=C1NC(=O)C(C(=O)Nc2ccc(O)cc2)C(=O)N1`, the solubility result in data set [4] and in data set [5] was “Insoluble” each time. Besides, in data set [8], the Activity is 100 µg/mL.

As to `CN1C(=O)C(C(=O)Nc2ccc([N+](=O)[O-])cc2)C(=O)N(C)C1=O`, the Activity in data set [8] was 100 µg/mL.

Turning to `O=C1NC(=O)N(c2ccccc2)C(=O)C1C(=O)Nc1ccc(Cl)cc1Cl` (configuration not stated), in data set [8], the Activity is 100 µg/mL.

As for `CN1C(=O)C(C(=O)Nc2cc(Cl)ccc2Cl)C(=O)N(C)C1=O`, the Activity in data set [8] was 100 µg/mL.

Regarding `O=C1NC(=O)N(c2ccccc2)C(=O)C1C(=O)Nc1ccc2cc3ccccc3cc2c1` (configuration not stated), in data set [8], the Activity amounted to 100 µg/mL.

For the compound `CN1C(=O)C(C(=O)Nc2ccc3ccccc3c2)C(=O)N(C)C1=O`, in data set [8], the Activity came to 100 µg/mL.

For `COc1ccc(NC(=O)C2C(=O)NC(=O)N(C)C2=O)cc1` (configuration not stated), in data set [8], the Activity stood at 100 µg/mL.

Turning to `Cc1ccc(NC(=O)C2C(=O)NC(=O)NC2=O)cc1C`, the solubility result in data set [4] and in data set [5] was “Insoluble” throughout. The Activity in data set [8] was 100 µg/mL.

For `O=C1NC(=O)C(C(=O)Nc2cc(Cl)ccc2Cl)C(=O)N1`, the solubility entry in data set [4] and in data set [5] was “Insoluble” each time.

With `CN1C(=O)C(C(=O)Nc2cccc(I)c2)C(=O)N(C)C1=O`, in data set [8], the Activity was 100 µg/mL.

As for `O=C1NC(=O)C(C(=O)Nc2cccc(Cl)c2Cl)C(=O)N1`, the solubility result in data set [4] and in data set [5] was “Insoluble” throughout.

`COc1cc(NC(=O)C2C(=O)NC(=O)NC2=O)cc(OC)c1OC`: the solubility result in data set [4] and in data set [5] was “Insoluble” in each case. In addition, the Activity in data set [8] amounted to 100 µg/mL.

Regarding `CN1C(=O)NC(=O)C(C(=O)Nc2cccc(O)c2)C1=O` (configuration not stated), the Activity in data set [8] came out at 100 µg/mL.

As for `CN1C(=O)C(C(=O)Nc2ccc(-c3ccccc3)cc2)C(=O)N(C)C1=O`, the Activity in data set [8] amounted to 100 µg/mL.

`O=C1NC(=O)C(C(=O)Nc2ccc3cc4ccccc4cc3c2)C(=O)N1`: the Activity in data set [8] was 100 µg/mL.

With `O=C1NC(=O)C(C(=O)Nc2ccc(C(=O)O)cc2)C(=O)N1`, the solubility result in data set [4] and in data set [5] was “Insoluble” throughout.

`O=C1NC(=O)N(c2ccccc2)C(=O)C1C(=O)Nc1ccc(Br)cc1` (configuration not stated): the Activity in data set [8] came out at 100 µg/mL.

For `COc1cc(NC(=O)C2C(=O)NC(=O)N(c3ccccc3)C2=O)cc(OC)c1OC` (configuration not stated), the Activity in data set [8] came out at 100 µg/mL.

Consider `CN1C(=O)C(C(=O)Nc2ccc(Cl)cc2Cl)C(=O)N(C)C1=O`, for which the Activity in data set [8] worked out at 100 µg/mL.

Take `CN1C(=O)C(C(=O)Nc2cccc3ccccc23)C(=O)N(C)C1=O`: the Activity in data set [8] came out at 100 µg/mL.

Take `O=C1NC(=O)N(c2ccccc2)C(=O)C1C(=O)Nc1ccc(I)cc1` (configuration not stated): the Activity in data set [8] is 100 µg/mL.

For `O=C1NC(=O)C(C(=O)Nc2ccc(Cl)c(Cl)c2)C(=O)N1`, the solubility result in data set [4] and in data set [5] was “Insoluble” throughout.

Consider `CCOC(=O)c1ccc(NC(=O)C2C(=O)NC(=O)NC2=O)cc1`, for which the solubility entry in data set [4] and in data set [5] was “Insoluble” each time. The Activity in data set [8] is 100 µg/mL.

For `O=C1NC(=O)C(C(=O)Nc2ccc(Br)cc2)C(=O)N1`, the solubility result in data set [4] and in data set [5] was “Insoluble” in each case.

With `O=C1NC(=O)C(C(=O)Nc2cccc(Br)c2)C(=O)N1`, the solubility entry in data set [4] and in data set [5] was “Insoluble” in each case. Moreover, in data set [8], the Activity is 100 µg/mL.

For `O=C1NC(=O)N(c2ccccc2)C(=O)C1C(=O)Nc1cccc2ccccc12` (configuration not stated), in data set [8], the Activity amounted to 100 µg/mL.

For `O=C1NC(=O)C(C(=O)Nc2ccc(F)cc2)C(=O)N1`, the solubility entry in data set [4] and in data set [5] was “Insoluble” throughout.

As for `O=C1NC(=O)C(C(=O)Nc2ccc(Cl)cc2)C(=O)N1`, the solubility result in data set [4] and in data set [5] was “Insoluble” throughout.

Turning to `CN1C(=O)C(C(=O)Nc2ccc(O)cc2)C(=O)N(C)C1=O`, the Activity in data set [8] is 100 µg/mL.

Turning to `CCOC(=O)c1ccc(NC(=O)C2C(=O)N(C)C(=O)N(C)C2=O)cc1`, the Activity in data set [8] was found to be 100 µg/mL.

Take `COc1ccc2nc(NC(=O)C3C(=O)NC(=O)N(c4ccccc4)C3=O)sc2c1` (configuration not stated): the Activity in data set [8] came out at 100 µg/mL.

Regarding `O=C1NC(=O)C(C(=O)Nc2ccc3ccccc3c2)C(=O)N1`, the Activity in data set [8] worked out at 100 µg/mL.
